Source: US10954305B2 (Immunomedics, Inc., priority 2016, dated 2021)

Assays:
[1] = system: p53 in BxPC-3 and Calu-3; experiment: p53 expression; assay type: cell-based, human
Protocol: In addition, p53 expression in cells exposed to the ADC was higher in both cell lines compared to SN-38 (not shown). […] In terms of later apoptotic events, cleavage of PARP was evident in both cell lines when incubated with either SN-38 or the conjugate (not shown). […] The higher degree of cleavage with free SN-38 over the ADC was consistent with the cytotoxicity findings.

[2] = tolerability in Swiss-Webster mice; settings: normal mice, over 1 week
[3] = mouse, in vivo
[4] = system: Capan-1 xenografts; experiment: combined radioimmunotherapy and ADC, Capan-1 xenograft; assay type: in vivo, nude mice
From the text: The present study examined combinations of ^90Y-hPAM4 IgG with RS7-SN-38 in nude mice bearing 0.35 cm^3 subcutaneous xenografts of the human pancreatic cancer cell line, Capan-1. […] These studies provide the first evidence that combined radioimmunotherapy and ADC enhances efficacy at safe doses.

[5] = system: BxPC-3; experiment: dsDNA breaks, γH2AX flow cytometry; assay type: cell-based, human; settings: 20 μg/ml for 30 min
Protocol: For drug activity testing, BxPC-3 cells were seeded in 6-well plates at 5×10^5 cells/well and held at 37° C. overnight. […] The following morning, cells were trypsinized briefly, spun down, stained with Fixable Viability Stain 450 (BD Biosciences, San Jose, Calif.), washed with 1% BSA-PBS, and then fixed in 4% formalin for 15 min, washed again and permeabilized in 0.15% Triton-X100 in PBS for another 15 min. After washing twice with 1% BSA-PBS, cells were incubated with mouse anti-γH2AX-AF488 (EMD Millipore Corporation, Temecula, Calif.) for 45 min at 4° C. The signal intensity of γH2AX was measured by flow cytometry using a BD FACSCanto (BD Biosciences, San Jose, Calif.).

[6] = system: non-small cell lung cancer; experiment: Phase I/II clinical trial of IMMU-132, NSCLC; assay type: in vivo, human
Protocol: Out of 29 patients, there were 8 PR and 13 SD. […] The median time to progression was […], with a range from 1.8 to 15.5+ months and 47% of patients still undergoing treatment. Median PFS was 3.4 months at 8 mg/kg and 3.8 months at 10 mg/kg. However, studies are still ongoing and the median progression-free survival numbers are likely to improve.

[7] = system: stage IV metastatic gastric cancer; experiment: therapy of a gastric cancer patient; assay type: in vivo, human; settings: after another 5 courses
[8] = storage stability of lyophilized IMMU-132; assay type: physicochemical
From the text: HIC-HPLC results were confirmed by liquid chromatography-mass spectrometry (LC-MS) (not shown).

[9] = mouse, in vivo, iv, 200 ug
From the text: ELISA was utilized to determine serum concentrations of total hRS7 IgG by competing for the binding to an anti-hRS7 IgG idiotype antibody with a horseradish peroxidase conjugate of hRS7. […] Pharmacokinetic (PK) parameters were computed by noncompartmental analysis using Phoenix WinNonlin software (version 6.3; Pharsight Corp., Mountainview, Calif.).

[10] = target: T1, Trop-2 on multiple cell lines (Homo sapiens, UniProt P09758); experiment: in vitro cell binding
T1 construct: endogenous in cells; host or cells: human solid tumour cell lines
T1 sequence (P09758 27-323): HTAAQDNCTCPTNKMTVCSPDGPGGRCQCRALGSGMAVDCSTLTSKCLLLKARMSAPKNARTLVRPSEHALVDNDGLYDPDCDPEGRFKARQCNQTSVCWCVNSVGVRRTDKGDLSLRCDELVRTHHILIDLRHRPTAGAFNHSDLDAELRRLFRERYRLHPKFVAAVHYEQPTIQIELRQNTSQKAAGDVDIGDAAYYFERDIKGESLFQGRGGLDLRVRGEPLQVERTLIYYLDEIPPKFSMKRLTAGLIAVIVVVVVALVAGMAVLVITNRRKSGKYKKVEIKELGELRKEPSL
Protocol: LumiGLO Chemiluminescent Substrate System (KPL, Gaithersberg, Md.) was used to detect antibody binding to cells. Briefly, cells were plated into a 96 black-well, flat-clear-bottom plate overnight. Antibodies were serially diluted 1:2 and added in triplicate, yielding a concentration range from 0.03 to 66.7 nM. After incubating for 1 h at 4° C., the media was removed and the cells washed with fresh cold media followed by the addition of a 1:20,000 dilution of goat-antihuman horseradish peroxidase-conjugated secondary antibody (Jackson Immunoresearch, West Grove, Pa.) for 1 h at 4° C. The plates were again washed before the addition of the LumiGLO reagent. Plates were read for luminescence using an Envision plate reader (Perkin Elmer, Boston Mass.). Data were analyzed by non-linear regression to determine the equilibrium dissociation constant (KD). Statistical comparisons of KD-values were made with Prism GraphPad Software (v4.03) (Advanced Graphics Software, Inc.; Encinitas, Calif.) using an F-Test on the best-fit curves for the data. Significance was set at P<0.05.

[11] = system: MDA-MB-468; experiment: ADCC, LDH-release assay; assay type: cell-based, human; settings: 33.3 nM, E:T 50:1
Protocol: Briefly, target cells (MDA-MB-468, NIH:OVCAR-3, or BxPC-3) were plated at 1×10^4 cells/well in a 96-well, black, flat-bottom plate and incubated overnight. The next day, peripheral blood mononuclear effector cells (PBMCs) were freshly isolated from a donor and added to assigned wells on the reaction plate at an E:T ratio of 50:1. Acquisition of human PBMCs was done under the approval of the New England Institutional Review Board (Newton, Mass.). Test reagents were added to their assigned wells at a final concentration of 33.3 nM. One set of wells received ADCC assay medium alone for background control and another set of wells received cells alone plus TritonX100 for maximum cells lysis control. The plate was incubated for 4 h at 37° C. After 4 h, target cell lysis was assessed by a homogenous fluorometric LDH release assay (Cyto Tox-One Homogenous Membrane Integrity Assay; Promega, Cat. G7891).
The plates were read (544 nm-590 nm) using an Envision plate reader (PerkinElmer LAS, Inc.; Shelton, Conn.). Data were analyzed by Microsoft Excel. Percent specific lysis was calculated as follows: […]

[12] = system: SK-MES-1 human squamous cell lung tumors; experiment: SK-MES-1 xenograft therapy; assay type: in vivo, nude mice; settings: 0.4 mg/kg; 28 days
Protocol: Therapeutic efficacy of hRS7-SN-38 ADC in several solid tumor-xenograft disease models.
Tumor volume (TV) was determined by measurements in 2 dimensions using calipers, with volumes defined as: L×w^2/2, where L is the longest dimension of the tumor and w is the shortest.

[13] = system: COLO 205 tumors; experiment: COLO 205 xenograft therapy; settings: 0.4 mg/kg, q4dx8; 28-day treatment period
Protocol: NCr female athymic nude (nu/nu) mice, 4 to 8 weeks old, and male Swiss-Webster mice, 10 weeks old, were purchased from Taconic Farms. […] Tumor volume (TV) was determined by measurements in 2 dimensions using calipers, with volumes defined as: L×w^2/2, where L is the longest dimension of the tumor and w is the shortest. […] This dosing frequency reflected a consideration of the conjugate's serum half-life in vitro, to allow a more continuous exposure to the ADC.

IMMU-132
time to upregulation of p53 [1]: ≤ 24 h | cumulative dose without acute toxicity [2]: 24 mg/kg SN-38 | chloride levels, range [3]: 116 to 127 mmol/L | glucose levels, range ([3]; 8 mg/kg): 273 to 320 mg/dL | mice tumor-free after 20 weeks ([4]; ADC alone): 1 of 10 | Mean Fluorescence Intensity (γH2AX) [5]: 5349 ± 234 | PD ([6]; of 5 assessable patients): 1 | PR ([6]; of 5 assessable patients): 1 | PR ([6]; out of 29 patients, 8 or 10 mg/kg): 8 | primary target lesion at first CT ([6]; person, from 5.6 cm, after 6 doses): 3.2 cm | disease reduction by RECIST at follow-up [7]: about 35% | stability once prepared and lyophilized [8]: stable for several years | MRT, carrier hRS7 antibody [9]: ~300 h | alpha half-life, hRS7 IgG [9]: approximately 3 h | beta half-life, hRS7 IgG [9]: ~200 h | half-life, intact conjugate [9]: 11 h | KD [10]: in the sub-nanomolar range | specific lysis [11]: 8.6±2.6%

hRS7 IgG
tumor volume (TV) [12]: 1.30±1.08 cm^3 | time to upregulation of p53 [1]: 48 h | anti-tumor activity of unconjugated antibody ([4]; given alone): Neither unconjugated hPAM4 nor hRS7 antibodies had anti-tumor activity when given alone | Mean Fluorescence Intensity (γH2AX) [5]: 2297 ± 18 | Percent Positive (γH2AX) [5]: 13.0 ± 0.6% | tumor volume (TV) [13]: 1.77±0.93 cm^3 | alpha half-life, hRS7 IgG [9]: approximately 3 h | beta half-life, hRS7 IgG [9]: ~200 h | KD [10]: in the sub-nanomolar range | specific lysis [11]: 29.8±2.6%
